Read-outs that look alike come from different tables or passages of the source. Marks after values point to notes of the source that are not given here.
How the values were obtained:
physchem = settings: pH 2.7
Alternaria solani = experiment: Alternaria test (tomato) / protective; assay type: in vivo; settings: 500 ppm active compound, protective spray, evaluated 7 days after inoculation
Method: Alternaria Test (Tomato)/Protective
Solvent: 49 parts by weight of N,N-dimethylformamide
Emulsifier: 1 part by weight of alkylaryl polyglycol ether
To produce a suitable preparation of active compound, 1 part by weight of active compound is mixed with the stated amounts of solvent and emulsifier, and the concentrate is diluted with water to the desired concentration.
To test for protective activity, young tomato plants are sprayed with the preparation of active compound at the stated application rate. […] The plants then remain at 96% rel. atmospheric humidity and a temperature of 20° C.
Evaluation is carried out 7 days after the inoculation. 0% means an efficacy which corresponds to that of the control, whereas an efficacy of 100% means that no infection is observed.

Pyrenophora teres = experiment: In vivo test on Pyrenophora teres (barley net blotch); settings: dose of 500 ppm; barley plants; grading 12 days after contamination
Method: In Vivo Test on Pyrenophora teres (Barley Net Blotch)
The active ingredients tested are prepared by homogenization in a mixture of acetone/Tween/DMSO, then diluted with water to obtain the desired active material concentration.
Barley plants (Plaisant variety), sown on a 50/50 peat soil-pozzolana substrate in starter cups and grown at 12° C., are treated at the 1-leaf stage (10 cm tall) by spraying with the active ingredient prepared as described above.
Plants, used as controls, are treated with an aqueous solution not containing the active material.
After 24 hours, the plants are contaminated by spraying them with an aqueous suspension of Pyrenophora teres spores (12,000 spores per ml). The spores are collected from a 12-day-old culture. The contaminated barley plants are incubated for 24 hours at about 20° C. and at 100% relative humidity, and then for 12 days at 80% relative humidity.
Grading is carried out 12 days after the contamination, in comparison with the control plants.

Fusarium graminearum = assay type: cell-based; settings: 50 μM; for % Inhibition of DON/AcDON at 50 μM: 7 days at 28° C.

Row | SMILES | log p (physchem) | efficacy (Alternaria solani) | protection (Pyrenophora teres) | % Inhibition of fungal growth at 50 μM (Fusarium graminearum) | % Inhibition of DON/AcDON at 50 μM (Fusarium graminearum) | log p (pH 2.7) | log p (pH 2.3)
1 | CCC(C)n1nc(-c2ccc(Cl)s2)c(-c2ccncc2)c1Cl (centres unmarked) [4-[5-Chloro-1-secbutyl-3-(5-chloro-2-thienyl)-1H-pyrazol-4-yl]pyridine] | 3.44 | – | – | – | – | – | –
2 | CCCc1c(I)c(-c2cccs2)nn1C [4-Iodo-1-methyl-5-propyl-3-(2-thienyl)-1H-pyrazole] | 3.92 | – | – | – | – | – | –
3 | CC(C)n1nccc1-c1cccs1 [1-Isopropyl-5-(2-thienyl)-1H-pyrazole] | 2.69 | – | – | – | – | – | –
4 | CCC(C)n1cc(-c2ccnc(C#N)c2)c(-c2ccc(Cl)s2)n1 (centres unmarked) [2-Cyano-4-[1-sec-butyl-3-(5-chloro-2-thienyl)-1H-pyrazol-4-yl]pyridine] | 4.41 | – | – | – | – | – | –
5 | CCC(C)n1cc(-c2ccnc(C(=O)NC(C)C)c2)c(-c2ccc(Cl)s2)n1 (centres unmarked) [4-[1-sec-Butyl-3-(5-chloro-2-thienyl)-1H-pyrazol-4-yl]-N-isopropylpyridine-2-carboxamide] | 4.82 | – | – | – | – | – | –
6 | CCC(C)n1cc(-c2ccnc(Br)c2)c(-c2ccc(Cl)s2)n1 (centres unmarked) [2-Bromo-4-[1-sec-butyl-3-(5-chloro-2-thienyl)-1H-pyrazol-4-yl]pyridine] | 5.03 | – | – | – | – | – | –
7 | CC(C)Cn1ncc(-c2ccnc(Cl)c2)c1-c1ccc(Cl)s1 [2-Chloro-4-[1-isobutyl-5-(5-chloro-2-thienyl)-1H-pyrazol-4-yl]pyridine] | 4.62 | – | – | – | – | – | –
8 | CCCn1ccc(-c2cccs2)n1 [1-Propyl-3-(2-thienyl)-1H-pyrazole] | 2.58 | – | – | – | – | – | –
9 | CCn1cc(-c2ccnc(NC(=O)CC3CC3)c2)c(-c2ccc(Cl)s2)n1 [Example 253] | – | 95% | 100% | 100% | 99% | 2.94^[b] | –
10 | Clc1csc(-c2cc[nH]n2)c1 [3-(4-Chloro-2-thienyl)-1H-pyrazole] | 1.91 | – | – | – | – | – | –
11 | CC(C)Nc1nccc(C(=CN(C)C)C(=O)c2ccc(Cl)s2)n1 [3-(Dimethylamino)-1-(5-chloro-2-thienyl)-2-[2-(isopropylamino)pyrimidin-4-yl]prop-2-en-1-one] | 1.67 | – | – | – | – | – | –
12 | CCn1ccc(-c2cc(Br)cs2)n1 [3-(4-Bromo-2-thienyl)-1-ethyl-1H-pyrazole] | 3.04 | – | – | – | – | – | –
13 | CC(C)n1ccc(-c2cc(Br)c(Br)s2)n1 [3-(4,5-Dibromo-2-thienyl)-1-isopropyl-1H-pyrazole] | 4.64 | – | – | – | – | – | –
14 | CN(C)C=CC(=O)c1cc(Cl)cs1 [1-(4-Chloro-2-thienyl)-3-(dimethylamino)prop-2-en-1-one] | 1.86 | – | – | – | – | – | –
15 | CC(=O)N(C(C)=O)c1cc(-c2cn(/C=C/F)nc2-c2ccc(Cl)s2)ccn1 [Example 297] | – | 90% | 80% | 0% | 100% | 3.09^[b] | –
16 | CSc1ccc(-c2nn(C(C)C)cc2-c2ccncc2)s1 [4-[1-Isopropyl-3-(5-methylsulfanyl-2-thienyl)-1H-pyrazol-4-yl]pyridine] | 1.79 | – | – | – | – | – | –
17 | Brc1csc(-c2cc[nH]n2)c1 [3-(4-Bromo-2-thienyl)-1H-pyrazole] | 1.99 | – | – | – | – | – | –
18 | CCn1nccc1-c1cccs1 [1-Ethyl-5-(2-thienyl)-1H-pyrazole] | 2.18 | – | – | – | – | – | –
19 | CC(C)n1nc(-c2ccc(Cl)s2)c(-c2ccncc2)c1C1CC1 [4-[5-Cyclopropyl-1-isopropyl-3-(5-chloro-2-thienyl)-1H-pyrazol-4-yl]pyridine] | 2.44 | – | – | – | – | – | –
20 | Brc1ccc(-c2n[nH]cc2-c2ccncc2)s1 [4-[3-(5-Bromo-2-thienyl)-1H-pyrazol-4-yl]pyridine] | 0.94 | – | – | – | – | – | –
21 | CCC(C)n1cc(-c2ccnc(NC(=O)CC(C)C)c2)c(-c2ccc(Cl)s2)n1 (centres unmarked) [Example 235] | – | 95% | 95% | 0% | 86% | 4.08^[b] | –
22 | CCC(C)n1cc(-c2ccnc(NC(=O)N(C)C)c2)c(-c2ccc(Cl)s2)n1 (centres unmarked) [Example 227] | – | 80% | 95% | 100% | 99% | 2.19^[b] | –

Row | SMILES | log p (physchem) | efficacy (Alternaria solani) | protection (Pyrenophora teres) | % Inhibition of fungal growth at 50 μM (Fusarium graminearum) | % Inhibition of DON/AcDON at 50 μM (Fusarium graminearum) | log p (pH 2.7) | log p (pH 2.3)
23 | CCCc1cc(-c2cccs2)nn1C [1-Methyl-5-propyl-3-(2-thienyl)-1H-pyrazole] | 2.9 | – | – | – | – | – | –
24 | CC(C)Cn1cc(-c2cc(N)ncn2)c(-c2ccc(Cl)s2)n1 [6-[3-(5-chloro-2-thienyl)-1-isobutyl-1H-pyrazol-4-yl]pyrimidin-4-amine] | 1.97 | – | – | – | – | – | –
25 | O=C(Cc1ccnc(Cl)n1)c1ccc(Cl)s1 [2-(2-Chloropyrimidin-4-yl)-1-(5-chloro-2-thienyl)ethanone] | 2.6 | – | – | – | – | – | –
26 | Clc1ccc(-c2n[nH]cc2-c2ccncc2)s1 [4-[3-(5-chloro-2-thienyl)-1H-pyrazol-4-yl]pyridine] | 0.9 | – | – | – | – | – | –
27 | CCC(C)n1cc(-c2ccnc(NC(=O)[C@H](C)O)c2)c(-c2ccc(Cl)s2)n1 (some centres unmarked) [Example 204] | – | 80% | 80% | 56% | 95% | 3.13^[b] | –
28 | Cc1n[nH]c(-c2ccc(Cl)s2)c1-c1ccncc1 [4-[5-(5-Chloro-2-thienyl)-3-methyl-1H-pyrazol-4-yl]pyridine] | 1.07 | – | – | – | – | – | –
29 | CCC(C)n1cc(-c2ccncc2)c(-c2ccc(Cl)s2)n1 (centres unmarked) [4-[1-sec-Butyl-3-(5-chloro-2-thienyl)-1H-pyrazol-4-yl]pyridine] | 2.1 | – | – | – | – | – | –
30 | CC(=O)N(C(C)=O)c1cc(-c2cn(C)nc2-c2ccc(Cl)s2)ccn1 [Example 303] | – | 95% | 70% | 83% | 100% | 2.52^[b] | –
31 | CC(=O)N(C(C)=O)c1cc(-c2cnn(/C=C/F)c2-c2ccc(Cl)s2)ccn1 [Example 291] | – | 90% | 95% | 18% | 100% | 3.39^[b] | –
32 | CC(=O)Nc1cc(-c2cn(/C=C/F)nc2-c2ccc(Cl)s2)ccn1 [Example 293] | – | 80% | 90% | 32% | 100% | 2.52^[b] | –
33 | CCC(C)n1cc(-c2ccnc(NC(=O)COC)c2)c(-c2ccc(Cl)s2)n1 (centres unmarked) [Example 223] | – | 95% | 95% | 79% | 99% | 3.68^[b] | –
34 | Cc1ccc(-c2nn(C(C)C)cc2-c2ccncc2)s1 [Example 199] | – | 89% | 95% | 100% | 99% | 1.5^[b] | –
35 | CCOCCn1cc(-c2ccncc2)c(-c2ccc(Cl)s2)n1 [Example 364] | – | 100% | 70% | 100% | 99% | 1.69^[b] | –
36 | CCC(C)n1cc(-c2ccnc(NC(=O)CC3CC3)c2)c(-c2ccc(Cl)s2)n1 (centres unmarked) [Example 229] | – | 95% | 90% | 82% | 98% | 3.81^[b] | –
37 | N#CCCn1cc(-c2ccncc2)c(-c2ccc(F)s2)n1 [Example 340] | – | 94% | 70% | 91% | 98% | 1.12^[b] | –
38 | CC(C)n1cc(-c2ccnc(NC(=O)[C@H](C)O)c2)c(-c2ccc(Cl)s2)n1 [Example 205] | – | 90% | 95% | 84% | 98% | 2.75^[b] | –
39 | CCn1cc(-c2ccnc(NC(=O)COC)c2)c(-c2ccc(Cl)s2)n1 [Example 261] | – | 90% | 90% | 96% | 98% | 2.78^[b] | –
40 | CCC(C)n1cc(-c2ccnc(NC(=O)C3CCC3)c2)c(-c2ccc(Cl)s2)n1 (centres unmarked) [Example 240] | – | 95% | 90% | 37% | 99% | 3.81^[b] | –
41 | CCC(C)n1cc(-c2ccnc(NC3COC3)n2)c(-c2ccc(Cl)s2)n1 (centres unmarked) [Example 194] | – | 95% | 100% | 90% | 99% | – | 3.09^[a]
42 | CC(C)CC(=O)Nc1cc(-c2cn(C)nc2-c2ccc(Cl)s2)ccn1 [Example 270] | – | 95% | 95% | 49% | 98% | 2.75^[b] | –
43 | FC(F)Cn1cc(-c2ccncc2)c(-c2ccc(Cl)s2)n1 [Example 363] | – | 100% | 90% | 99% | 99% | 1.61^[b] | –
